Data as given in US20080233127A1, “IMIDAZOLOPYRIMIDINE ANALOGS AND THEIR USE AS PI3 KINASE AND MTOR INHIBITORS” (Wyeth, priority 2007, published 2008).
pIC50: −log10 of the molar value.

What was measured:
human TOR = target: T1, human TOR (Homo sapiens, UniProt P42345); test: mTOR enzyme assay (DELFIA format, purified FLAG-TOR, His6-S6K substrate); assay type: biochemical; conditions: 100 μM ATP, 1.25 μM His6-S6K, 2 hours at room temperature; read-out: TOR Kinase Median IC50
T1 construct: FLAG

PI3 Kinase = test: PI3K fluorescence polarization assay; assay type: biochemical; conditions: 25 μM ATP, diC8-PI(4,5)P2 substrate, 1 hour at 25° C.; read-out: PI3 Kinase Median IC50

| SMILES | pIC50 (human TOR) | pIC50 (PI3 Kinase) |
| --- | --- | --- |
| O=[N+]([O-])c1cccc(-c2nc(N3CCOCC3)c3nc[nH]c3n2)c1 [Compound 8, 6-morpholin-4-yl-2-(3-nitrophenyl)-9H-purine] | – | 5.05 |
| FC(F)(F)c1cccc(-c2nc(N3CCOCC3)c3nc[nH]c3n2)c1 [Compound 10, 6-morpholin-4-yl-2-[3-(trifluoromethyl)phenyl]-9H-purine] | – | 5.24 |
| CC(=O)N1CCC(n2cnc3c(N4CCOCC4)nc(-c4cccc(CO)c4)nc32)CC1 [Compound 26, 1-(4-(2-(3-(hydroxymethyl)phenyl)-6-morpholino-9H-purin-9-yl)piperidin-1-yl)ethanone] | 5.68 | 6.72 |
| Clc1cc(-c2nc(N3CCOCC3)c3nc[nH]c3n2)ccc1OCc1ccccc1 [Compound 24, 2-(4-Benzyloxy-3-chloro-phenyl)-6-morpholin-4-yl-9H-purine] | < 4.70 | 5.34 |
| c1nc2c(N3CCOCC3)nc(-c3ccoc3)nc2[nH]1 [Compound 19, 2-(3-furyl)-6-morpholin-4-yl-9H-purine] | – | 5.36 |
| CC(C)c1cccc(-c2nc(N3CCOCC3)c3nc[nH]c3n2)c1 [Compound 12, 2-(3-isopropylphenyl)-6-morpholin-4-yl-9H-purine] | – | 5.00 |
| c1ccc(-c2cccc(-c3nc(N4CCOCC4)c4nc[nH]c4n3)c2)cc1 [Compound 14, 2-biphenyl-3-yl-6-morpholin-4-yl-9H-purine] | – | 5.35 |
| c1nc2c(N3CCOCC3)nc(-c3ccsc3)nc2[nH]1 [Compound 2, 6-morpholin-4-yl-2-(3-thienyl)-9H-purine] | 5.41 | 5.48 |
| Oc1cccc(-c2nc(N3CCCCC3)c3nc[nH]c3n2)c1 [Compound 21, 3-(6-Piperidin-1-yl-9H-purin-2-yl)-phenol] | – | 5.37 |
| N#Cc1cccc(-c2nc(N3CCOCC3)c3nc[nH]c3n2)c1 [Compound 13, 3-(6-morpholin-4-yl-9H-purin-2-yl)benzonitrile] | – | 5.45 |
| c1ccc(Oc2ccccc2-c2nc(N3CCOCC3)c3nc[nH]c3n2)cc1 [Compound 16, 6-morpholin-4-yl-2-(2-phenoxyphenyl)-9H-purine] | – | 5.05 |
| c1ccc2c(-c3nc(N4CCOCC4)c4nc[nH]c4n3)csc2c1 [Compound 9, 2-(1-benzothien-3-yl)-6-morpholin-4-yl-9H-purine] | – | 5.70 |
| Oc1ccccc1-c1nc(N2CCOCC2)c2nc[nH]c2n1 [Compound 3, 2-(6-morpholin-4-yl-9H-purin-2-yl)phenol] | 5.60 | – |
| CN(C)C(=O)c1ccc(-c2nc(N3CCOCC3)c3nc[nH]c3n2)cc1 [Compound 17, N,N-dimethyl-4-(6-morpholin-4-yl-9H-purin-2-yl)benzamide] | – | 5.23 |
| Oc1cccc(-c2nc(N3CCOCC3)c3ncn(C4CCN(Cc5ccccc5)CC4)c3n2)c1 [Compound 28, 3-(9-(1-benzylpiperidin-4-yl)-6-morpholino-9H-purin-2-yl)phenol] | 6.85 | – |
| CS(=O)(=O)c1ccc(-c2nc(N3CCOCC3)c3nc[nH]c3n2)cc1 [Compound 22, 2-(4-Methanesulfonyl-phenyl)-6-morpholin-4-yl-9H-purine] | – | 5.66 |
| Cc1cccc(-c2nc(N3CCOCC3)c3nc[nH]c3n2)c1 [Compound 11, 2-(3-methylphenyl)-6-morpholin-4-yl-9H-purine] | – | 5.38 |

Continued, values first:

| pIC50 (human TOR) | pIC50 (PI3 Kinase) | SMILES |
| --- | --- | --- |
| 6.14 | – | OCc1cccc(-c2nc(N3CCOCC3)c3ncn(C4CCN(Cc5ccc(-c6ccncc6)cc5)CC4)c3n2)c1 [Compound 47, (3-{6-morpholin-4-yl-9-[1-(4-pyridin-4-ylbenzyl)piperidin-4-yl]-9H-purin-2-yl}phenyl)methanol] |
| 5.48 | 6.71 | OCc1cccc(-c2nc(N3CCOCC3)c3ncn(C4CCN(Cc5c(F)cc(F)cc5F)CC4)c3n2)c1 [Compound 60, (3-{6-morpholin-4-yl-9-[1-(2,4,6-trifluorobenzyl)piperidin-4-yl]-9H-purin-2-yl}phenyl)methanol] |
| 5.85 | 7.03 | OCc1cccc(-c2nc(N3CCOCC3)c3ncn(C4CCN(Cc5cccc(F)c5)CC4)c3n2)c1 [Compound 50, (3-{9-[1-(3-fluorobenzyl)piperidin-4-yl]-6-morpholin-4-yl-9H-purin-2-yl}phenyl)methanol] |
| 6.54 | 6.81 | Oc1cccc(-c2nc(N3CCOCC3)c3ncn(C4CCN(Cc5ccccn5)CC4)c3n2)c1 [Compound 77, 3-{6-morpholin-4-yl-9-[1-(pyridin-2-ylmethyl)piperidin-4-yl]-9H-purin-2-yl}phenol] |
| 5.74 | 7.00 | OCc1cccc(-c2nc(N3CCOCC3)c3ncn(C4CCN(Cc5cccc(N6CCOCC6)n5)CC4)c3n2)c1 [Compound 72, [3-(6-morpholin-4-yl-9-{1-[(6-morpholin-4-ylpyridin-2-yl)methyl]piperidin-4-yl}-9H-purin-2-yl)phenyl]methanol] |
| 6.24 | 7.03 | Oc1cncc(-c2nc(N3CCOCC3)c3ncn(C4CCN(Cc5ccc(F)nc5)CC4)c3n2)c1 [Compound 41, 5-{9-[1-(6-fluoro-pyridin-3-ylmethyl)-piperidin-4-yl]-6-morpholin-4-yl-9H-purin-2-yl}-pyridin-3-ol] |
| 7.29 | 7.26 | COc1ccc(CN2CCC(n3cnc4c(N5CCOCC5)nc(-c5cccc(O)c5)nc43)CC2)cn1 [Compound 79, 3-(9-{1-[(6-methoxypyridin-3-yl)methyl]piperidin-4-yl}-6-morpholin-4-yl-9H-purin-2-yl)phenol] |
| 5.52 | 6.22 | COc1cncc(-c2nc(N3CCOCC3)c3nc[nH]c3n2)c1 [Compound 42, 2-(5-methoxypyridin-3-yl)-6-morpholin-4-yl-9H-purine] |
| < 5.40 | 6.75 | OCc1cccc(-c2nc(N3CCOCC3)c3ncn(C4CCN(Cc5cncc(F)c5)CC4)c3n2)c1 [Compound 66, [3-(9-{1-[(5-fluoropyridin-3-yl)methyl]piperidin-4-yl}-6-morpholin-4-yl-9H-purin-2-yl)phenyl]methanol] |
| 6.80 | 7.38 | OCc1cccc(-c2nc(N3CCOCC3)c3ncn(C4CCN(Cc5ccccc5F)CC4)c3n2)c1 [Compound 45, (3-{9-[1-(2-fluorobenzyl)piperidin-4-yl]-6-morpholin-4-yl-9H-purin-2-yl}phenyl)methanol] |
| 5.77 | 7.15 | OCc1cccc(-c2nc(N3CCOCC3)c3ncn(C4CCN(Cc5ccc(F)cc5)CC4)c3n2)c1 [Compound 46, (3-{9-[1-(4-fluorobenzyl)piperidin-4-yl]-6-morpholin-4-yl-9H-purin-2-yl}phenyl)methanol] |
| 6.77 | – | Oc1cccc(-c2nc(N3CCOCC3)c3ncn(C4CCN(Cc5cccnc5)CC4)c3n2)c1 [Compound 76, 3-{6-morpholin-4-yl-9-[1-(pyridin-3-ylmethyl)piperidin-4-yl]-9H-purin-2-yl}phenol] |
| 6.21 | 7.96 | Oc1cncc(-c2nc(N3CCOCC3)c3nc[nH]c3n2)c1 [Compound 43, 5-(6-morpholin-4-yl-9H-purin-2-yl)pyridin-3-ol] |
| 6.84 | 7.26 | Oc1cccc(-c2nc(N3CCOCC3)c3ncn(C4CCN(Cc5ccc(N6CCOCC6)nc5)CC4)c3n2)c1 [Compound 82, 3-(6-morpholin-4-yl-9-{1-[(6-morpholin-4-ylpyridin-3-yl)methyl]piperidin-4-yl}-9H-purin-2-yl)phenol] |
| 5.70 | 7.03 | OCc1cccc(-c2nc(N3CCOCC3)c3ncn(C4CCN(Cc5cnc6n5CCOC6)CC4)c3n2)c1 [Compound 74, (3-{9-[1-(5,6-dihydro-8H-imidazo[2,1-c][1,4]oxazin-3-ylmethyl)piperidin-4-yl]-6-morpholin-4-yl-9H-purin-2-yl}phenyl)methanol] |
| 5.89 | 7.52 | OCc1cccc(-c2nc(N3CCOCC3)c3ncn(C4CCN(Cc5c[nH]c6ccc(F)cc56)CC4)c3n2)c1 [Compound 73, [3-(9-{1-[(5-fluoro-1H-indol-3-yl)methyl]piperidin-4-yl}-6-morpholin-4-yl-9H-purin-2-yl)phenyl]methanol] |
| 5.67 | – | Oc1cccc(-c2nc(N3CCOCC3)c3nc[nH]c3n2)c1 [Compound 55, 3-(6-morpholino-9H-purin-2-yl)phenol] |
| 6.00 | – | OCc1cccc(-c2nc(N3CCOCC3)c3ncn(C4CCN(Cc5ccccc5)CC4)c3n2)c1 [Compound 51, {3-[9-(1-benzylpiperidin-4-yl)-6-morpholin-4-yl-9H-purin-2-yl]phenyl}methanol] |
| 6.80 | – | Oc1cncc(-c2nc(N3CCOCC3)c3ncn(C4CCN(Cc5ccc(Cl)cc5)CC4)c3n2)c1 [Compound 38, 5-{9-[1-(4-chlorobenzyl)piperidin-4-yl]-6-morpholin-4-yl-9H-purin-2-yl}pyridin-3-ol] |
| 6.15 | – | OCc1cccc(-c2nc(N3CCOCC3)c3ncn(C4CCN(Cc5ccccc5)CC4)c3n2)c1 [Compound 33, {3-[9-(1-benzylpiperidin-4-yl)-6-morpholin-4-yl-9H-purin-2-yl]phenyl}methanol] |
| 6.23 | – | Cc1ccc(CN2CCC(n3cnc4c(N5CCOCC5)nc(-c5cncc(O)c5)nc43)CC2)cc1 [Compound 40, 5-{9-[1-(4-methylbenzyl)piperidin-4-yl]-6-morpholin-4-yl-9H-purin-2-yl}pyridin-3-ol] |
| < 4.70 | – | COc1cccc(-c2nc(N3CCOCC3)c3nc[nH]c3n2)c1 [Compound 53, 4-(2-(3-methoxyphenyl)-9H-purin-6-yl)morpholine] |
| 6.92 | – | Oc1cccc(-c2nc(N3CCOCC3)c3ncn(C4CCN(Cc5ccc(Br)nc5)CC4)c3n2)c1 [Compound 81, 3-(9-{1-[(6-bromopyridin-3-yl)methyl]piperidin-4-yl}-6-morpholin-4-yl-9H-purin-2-yl)phenol] |
| 4.72 | – | c1ccc(-c2nc(N3CCOCC3)c3nc[nH]c3n2)cc1 [Compound 54, 4-(2-phenyl-9H-purin-6-yl)morpholine] |
